Results published in paper PMC6656724 (Communications Biology, 2019).
≈ marks a conversion by molar mass, not a printed value.

system: not listed separately; test: Stability in mouse hepatic microsomes; settings: mouse hepatic microsomes
Description: 3.6.3 Compound stability in mouse hepatic microsomes and rat hepatocytes
A microsomal stability assay was performed as described in the BioFocus Standard
Operating Procedure ADME-SOP-83, using pooled hepatic mouse
Test and control compounds (midazolam,
dextromethorphan), were prepared in DMSO and incubated at an initial concentration
in the presence of the cofactor, NADPH (1 mM). Aliquots were removed at 0, 5, 10,
20 and 40 minutes for termination of reactions and compound extraction with ACN
containing an analytical internal standard. Samples were centrifuged and the
supernatant fractions analysed for parent compound by mass spectrometry (LC-
MS/MS). The amount of compound remaining (expressed as %) was determined from
the MS response in each sample relative to that in the T = 0 samples (normalised for
internal standard). Ln plots of the % remaining were used to determine the half-life
the slope of the Ln % remaining vs time curve. The in vitro intrinsic clearance Clint

Row | Structure (SMILES) | Mean intrinsic clearance
1 | Cn1c(C(=O)N[C@@H](C(=O)O)c2ccccc2)cc2cc(F)ccc21 [compound 5, (R)-2-(5-fluoro-1-methyl-1H-indole-2-carboxamido)-2-phenylacetic acid] | < 28 µL/min/mg microsome protein

same assay, conditions: mouse, pooled liver microsomes, Half-life Mean, mouse hepatic microsomes, 1 µM

Row | Structure (SMILES) | half-life at 1 µM [h]
2 | Cn1c(C(=O)N[C@@H](C(=O)O)c2ccccc2)cc2cc(F)ccc21 [compound 5, (R)-2-(5-fluoro-1-methyl-1H-indole-2-carboxamido)-2-phenylacetic acid] | > 1.67

same assay, conditions: mouse, pooled liver microsomes, Half-life n=1, mouse hepatic microsomes, 1 µM

Row | Structure (SMILES) | half-life at 1 µM [h]
3 | Cn1c(C(=O)N[C@@H](C(=O)O)c2ccccc2)cc2cc(F)ccc21 [compound 5, (R)-2-(5-fluoro-1-methyl-1H-indole-2-carboxamido)-2-phenylacetic acid] | > 1.67

same assay, conditions: mouse, pooled liver microsomes, Half-life n=2, mouse hepatic microsomes, 1 µM

Row | Structure (SMILES) | half-life at 1 µM [h]
4 | Cn1c(C(=O)N[C@@H](C(=O)O)c2ccccc2)cc2cc(F)ccc21 [compound 5, (R)-2-(5-fluoro-1-methyl-1H-indole-2-carboxamido)-2-phenylacetic acid] | > 1.67

system: MDR1 (P-glycoprotein); test: in vitro; assay type: in vitro ADME, canine; settings: dog, MDCK-MDR1, pH 7.4, MDR1 MDCK; read-out: Papp A>B Mean
Description: (§1) internal standard at each timepoint. […]
(§2) including an analytical internal standard.
(§3) Apparent permeability (Papp) values were determined from the relationship: […]
(§4) Where V is the volume of each Transwell compartment (apical 125 µL, basolateral 600 µL), and concentrations are the relative MS responses for compound (normalized to internal standard) in the donor chamber before incubation and acceptor chamber at the end of the incubation. Area = area of cells exposed for drug transfer (0.33 cm 2).
(§5) Efflux ratios (Papp B>A / Papp A>B) were calculated for each compound from the […]
(§6) MDR1-MDCK cell line has been engineered to overexpress the efflux transporter, MDR1 (P-glycoprotein), and a finding of good permeability B>A, but poor […]
(§7) order to confirm the involvement of MDR1 in any efflux seen, an “ef fective efflux ratio” (EER) was calculated by comparing compound efflux ratios (ER) in the two cell types, i.e. EER = ER (MDR1-MDCK)/ ER (wild-type MDCK). This ratio illustrates the effect of the over-expressed MDR1 normalised for the background movement of compound through the wild-type cells.
(§8) Lucifer Yellow (LY) was added to the apical buffer in all wells to assess viability of the cell layer. As LY cannot freely permeate lipophilic barriers, a high degree of LY […]
(§9) validity of other wells on the plate.
(§10) Compound recovery from the wells was determined from MS responses (normalized to internal standard) in donor and acceptor chambers at the end of incubation compared to response in the donor chamber pre-incubation.

Row | Structure (SMILES) | Papp A→B at 1 h, 10 µM [×10⁻⁶ cm/s]
5 | Cn1c(C(=O)N[C@@H](C(=O)O)c2ccccc2)cc2cc(F)ccc21 [compound 5, (R)-2-(5-fluoro-1-methyl-1H-indole-2-carboxamido)-2-phenylacetic acid] | 2.6

same assay, conditions: dog, MDCK-MDR1, pH 7.4, MDR1 MDCK; read-out: Papp B>A Mean

Row | Structure (SMILES) | Papp B→A at 1 h, 10 µM [×10⁻⁶ cm/s]
6 | Cn1c(C(=O)N[C@@H](C(=O)O)c2ccccc2)cc2cc(F)ccc21 [compound 5, (R)-2-(5-fluoro-1-methyl-1H-indole-2-carboxamido)-2-phenylacetic acid] | 2.25

same assay, conditions: dog, MDCK-MDR1, pH 7.4, MDR1 MDCK; read-out: Recovery A>B Mean

Row | Structure (SMILES) | recovery at 1 h, 10 µM [%]
7 | Cn1c(C(=O)N[C@@H](C(=O)O)c2ccccc2)cc2cc(F)ccc21 [compound 5, (R)-2-(5-fluoro-1-methyl-1H-indole-2-carboxamido)-2-phenylacetic acid] | 83

same assay, conditions: dog, MDCK-MDR1, pH 7.4, MDR1 MDCK; read-out: Recovery A>B n=1

Row | Structure (SMILES) | recovery at 1 h, 10 µM [%]
8 | Cn1c(C(=O)N[C@@H](C(=O)O)c2ccccc2)cc2cc(F)ccc21 [compound 5, (R)-2-(5-fluoro-1-methyl-1H-indole-2-carboxamido)-2-phenylacetic acid] | 87

same assay, conditions: dog, MDCK-MDR1, pH 7.4, MDR1 MDCK; read-out: Recovery A>B n=2

Row | Structure (SMILES) | recovery at 1 h, 10 µM [%]
9 | Cn1c(C(=O)N[C@@H](C(=O)O)c2ccccc2)cc2cc(F)ccc21 [compound 5, (R)-2-(5-fluoro-1-methyl-1H-indole-2-carboxamido)-2-phenylacetic acid] | 79

same assay, conditions: dog, MDCK-MDR1, pH 7.4, MDR1 MDCK; read-out: Recovery B>A Mean

Row | Structure (SMILES) | recovery at 1 h, 10 µM [%]
10 | Cn1c(C(=O)N[C@@H](C(=O)O)c2ccccc2)cc2cc(F)ccc21 [compound 5, (R)-2-(5-fluoro-1-methyl-1H-indole-2-carboxamido)-2-phenylacetic acid] | 81.5

same assay, conditions: dog, MDCK-MDR1, pH 7.4, MDR1 MDCK; read-out: Recovery B>A n=1

Row | Structure (SMILES) | recovery at 1 h, 10 µM [%]
11 | Cn1c(C(=O)N[C@@H](C(=O)O)c2ccccc2)cc2cc(F)ccc21 [compound 5, (R)-2-(5-fluoro-1-methyl-1H-indole-2-carboxamido)-2-phenylacetic acid] | 80

same assay, conditions: dog, MDCK-MDR1, pH 7.4, MDR1 MDCK; read-out: Recovery B>A n=2

Row | Structure (SMILES) | recovery at 1 h, 10 µM [%]
12 | Cn1c(C(=O)N[C@@H](C(=O)O)c2ccccc2)cc2cc(F)ccc21 [compound 5, (R)-2-(5-fluoro-1-methyl-1H-indole-2-carboxamido)-2-phenylacetic acid] | 83

same assay, conditions: dog, MDCK-MDR1, pH 7.4, Papp A>B n=1, MDR1 MDCK

Row | Structure (SMILES) | Papp A→B at 1 h, 10 µM [×10⁻⁶ cm/s]
13 | Cn1c(C(=O)N[C@@H](C(=O)O)c2ccccc2)cc2cc(F)ccc21 [compound 5, (R)-2-(5-fluoro-1-methyl-1H-indole-2-carboxamido)-2-phenylacetic acid] | 2.8

same assay, conditions: dog, MDCK-MDR1, pH 7.4, Papp A>B n=2, MDR1 MDCK

Row | Structure (SMILES) | Papp A→B at 1 h, 10 µM [×10⁻⁶ cm/s]
14 | Cn1c(C(=O)N[C@@H](C(=O)O)c2ccccc2)cc2cc(F)ccc21 [compound 5, (R)-2-(5-fluoro-1-methyl-1H-indole-2-carboxamido)-2-phenylacetic acid] | 2.4

same assay, conditions: dog, MDCK-MDR1, pH 7.4, Papp B>A n=1, MDR1 MDCK

Row | Structure (SMILES) | Papp B→A at 1 h, 10 µM [×10⁻⁶ cm/s]
15 | Cn1c(C(=O)N[C@@H](C(=O)O)c2ccccc2)cc2cc(F)ccc21 [compound 5, (R)-2-(5-fluoro-1-methyl-1H-indole-2-carboxamido)-2-phenylacetic acid] | 2.4

same assay, conditions: dog, MDCK-MDR1, pH 7.4, Papp B>A n=2, MDR1 MDCK

Row | Structure (SMILES) | Papp B→A at 1 h, 10 µM [×10⁻⁶ cm/s]
16 | Cn1c(C(=O)N[C@@H](C(=O)O)c2ccccc2)cc2cc(F)ccc21 [compound 5, (R)-2-(5-fluoro-1-methyl-1H-indole-2-carboxamido)-2-phenylacetic acid] | 2.1

same assay, conditions: dog, pH 7.4; MDR1 MDCK, Papp B>A / Papp A>B

Row | Structure (SMILES) | efflux ratio at 1 h, 10 µM
17 | Cn1c(C(=O)N[C@@H](C(=O)O)c2ccccc2)cc2cc(F)ccc21 [compound 5, (R)-2-(5-fluoro-1-methyl-1H-indole-2-carboxamido)-2-phenylacetic acid] | 0.88

system: not listed separately; test: in vitro; assay type: in vitro ADME, canine; settings: dog, MDCK, pH 7.4, Papp A>B n=1, wild type MDCK
Description: as §1, §2, §3, §4, §5, §6, §7, §8, §9, §10

Row | Structure (SMILES) | Papp A→B at 1 h, 10 µM [×10⁻⁶ cm/s]
18 | Cn1c(C(=O)N[C@@H](C(=O)O)c2ccccc2)cc2cc(F)ccc21 [compound 5, (R)-2-(5-fluoro-1-methyl-1H-indole-2-carboxamido)-2-phenylacetic acid] | 2.6

same assay, conditions: dog, MDCK, pH 7.4, Papp A>B n=2, wild type MDCK

Row | Structure (SMILES) | Papp A→B at 1 h, 10 µM [×10⁻⁶ cm/s]
19 | Cn1c(C(=O)N[C@@H](C(=O)O)c2ccccc2)cc2cc(F)ccc21 [compound 5, (R)-2-(5-fluoro-1-methyl-1H-indole-2-carboxamido)-2-phenylacetic acid] | 2.1

same assay, conditions: dog, MDCK, pH 7.4, Papp B>A n=1, wild type MDCK

Row | Structure (SMILES) | Papp B→A at 1 h, 10 µM [×10⁻⁶ cm/s]
20 | Cn1c(C(=O)N[C@@H](C(=O)O)c2ccccc2)cc2cc(F)ccc21 [compound 5, (R)-2-(5-fluoro-1-methyl-1H-indole-2-carboxamido)-2-phenylacetic acid] | 1.6

same assay, conditions: dog, MDCK, pH 7.4, Papp B>A n=2, wild type MDCK

Row | Structure (SMILES) | Papp B→A at 1 h, 10 µM [×10⁻⁶ cm/s]
21 | Cn1c(C(=O)N[C@@H](C(=O)O)c2ccccc2)cc2cc(F)ccc21 [compound 5, (R)-2-(5-fluoro-1-methyl-1H-indole-2-carboxamido)-2-phenylacetic acid] | 1.4

same assay, conditions: dog, MDCK, pH 7.4, wild type MDCK; read-out: Papp A>B Mean

Row | Structure (SMILES) | Papp A→B at 1 h, 10 µM [×10⁻⁶ cm/s]
22 | Cn1c(C(=O)N[C@@H](C(=O)O)c2ccccc2)cc2cc(F)ccc21 [compound 5, (R)-2-(5-fluoro-1-methyl-1H-indole-2-carboxamido)-2-phenylacetic acid] | 2.35

same assay, conditions: dog, MDCK, pH 7.4, wild type MDCK; read-out: Papp B>A Mean

Row | Structure (SMILES) | Papp B→A at 1 h, 10 µM [×10⁻⁶ cm/s]
23 | Cn1c(C(=O)N[C@@H](C(=O)O)c2ccccc2)cc2cc(F)ccc21 [compound 5, (R)-2-(5-fluoro-1-methyl-1H-indole-2-carboxamido)-2-phenylacetic acid] | 1.5

same assay, conditions: dog, MDCK, pH 7.4, wild type MDCK; read-out: Recovery A>B Mean

Row | Structure (SMILES) | recovery at 1 h, 10 µM [%]
24 | Cn1c(C(=O)N[C@@H](C(=O)O)c2ccccc2)cc2cc(F)ccc21 [compound 5, (R)-2-(5-fluoro-1-methyl-1H-indole-2-carboxamido)-2-phenylacetic acid] | 81

same assay, conditions: dog, MDCK, pH 7.4, wild type MDCK; read-out: Recovery A>B n=1

Row | Structure (SMILES) | recovery at 1 h, 10 µM [%]
25 | Cn1c(C(=O)N[C@@H](C(=O)O)c2ccccc2)cc2cc(F)ccc21 [compound 5, (R)-2-(5-fluoro-1-methyl-1H-indole-2-carboxamido)-2-phenylacetic acid] | 81

same assay, conditions: dog, MDCK, pH 7.4, wild type MDCK; read-out: Recovery A>B n=2

Row | Structure (SMILES) | recovery at 1 h, 10 µM [%]
26 | Cn1c(C(=O)N[C@@H](C(=O)O)c2ccccc2)cc2cc(F)ccc21 [compound 5, (R)-2-(5-fluoro-1-methyl-1H-indole-2-carboxamido)-2-phenylacetic acid] | 81

same assay, conditions: dog, MDCK, pH 7.4, wild type MDCK; read-out: Recovery B>A Mean

Row | Structure (SMILES) | recovery at 1 h, 10 µM [%]
27 | Cn1c(C(=O)N[C@@H](C(=O)O)c2ccccc2)cc2cc(F)ccc21 [compound 5, (R)-2-(5-fluoro-1-methyl-1H-indole-2-carboxamido)-2-phenylacetic acid] | 83.5

same assay, conditions: dog, MDCK, pH 7.4, wild type MDCK; read-out: Recovery B>A n=1

Row | Structure (SMILES) | recovery at 1 h, 10 µM [%]
28 | Cn1c(C(=O)N[C@@H](C(=O)O)c2ccccc2)cc2cc(F)ccc21 [compound 5, (R)-2-(5-fluoro-1-methyl-1H-indole-2-carboxamido)-2-phenylacetic acid] | 86

same assay, conditions: dog, MDCK, pH 7.4, wild type MDCK; read-out: Recovery B>A n=2

Row | Structure (SMILES) | recovery at 1 h, 10 µM [%]
29 | Cn1c(C(=O)N[C@@H](C(=O)O)c2ccccc2)cc2cc(F)ccc21 [compound 5, (R)-2-(5-fluoro-1-methyl-1H-indole-2-carboxamido)-2-phenylacetic acid] | 81

same assay, conditions: dog, pH 7.4; wild type MDCK, Papp B>A / Papp A>B

Row | Structure (SMILES) | efflux ratio at 1 h, 10 µM
30 | Cn1c(C(=O)N[C@@H](C(=O)O)c2ccccc2)cc2cc(F)ccc21 [compound 5, (R)-2-(5-fluoro-1-methyl-1H-indole-2-carboxamido)-2-phenylacetic acid] | 0.62

system: not listed separately; test: Kinetic solubility in PBS, pH 7.4 (2% DMSO); assay type: physicochemical; settings: PBS with 2% DMSO, pH 7.4, aqueous buffer, kinetic from dmso stock, PBS, pH 7.4 (2% DMSO); read-out: Solubility Mean

Row | Structure (SMILES) | solubility at 2 h [µM]
31 | Cn1c(C(=O)N[C@@H](C(=O)O)c2ccccc2)cc2cc(F)ccc21 [compound 5, (R)-2-(5-fluoro-1-methyl-1H-indole-2-carboxamido)-2-phenylacetic acid] | 185 (≈ 60.4 µg/mL)

same assay, conditions: PBS with 2% DMSO, pH 7.4, aqueous buffer, kinetic from dmso stock, PBS, pH 7.4 (2% DMSO); read-out: Solubility n=1

Row | Structure (SMILES) | solubility at 2 h [µM]
32 | Cn1c(C(=O)N[C@@H](C(=O)O)c2ccccc2)cc2cc(F)ccc21 [compound 5, (R)-2-(5-fluoro-1-methyl-1H-indole-2-carboxamido)-2-phenylacetic acid] | 186 (≈ 60.7 µg/mL)

same assay, conditions: PBS with 2% DMSO, pH 7.4, aqueous buffer, kinetic from dmso stock, PBS, pH 7.4 (2% DMSO); read-out: Solubility n=2

Row | Structure (SMILES) | solubility at 2 h [µM]
33 | Cn1c(C(=O)N[C@@H](C(=O)O)c2ccccc2)cc2cc(F)ccc21 [compound 5, (R)-2-(5-fluoro-1-methyl-1H-indole-2-carboxamido)-2-phenylacetic acid] | 183 (≈ 59.7 µg/mL)
